This passage reports Activity and Kd results from ChEMBL document CHEMBL3352120, “Enantioselective induction of SIRT1 gene by syringaresinol from Panax ginseng berry and Acanthopanax senticosus Harms stem” (Bioorg Med Chem Lett, 2015).

Data set [1] concerns the target T1, Forkhead box protein O3 (Homo sapiens, UniProt O43524). Put plainly: Induction of FOXO3a binding to SIRT1 in HUVEC at 50 uM after 24 hrs by chromatin immunoprecipitation assay.
Data set [2] concerns HUVEC. The data set is described as follows: Induction of SIRT1 mRNA expression in HUVEC at 5 to 100 uM by quantitative RT-PCR analysis. In kind it is functional, cell-based. The following applies: Homo sapiens.
The test system of data set [3] is HUVEC. The data set is described as follows: Induction of SIRT1 mRNA expression in HUVEC at 5 to 100 uM after 24 hrs by luciferase reporter gene assay relative to untreated control. In kind it is functional, cell-based. The following applies: Homo sapiens. (A reporter such as luciferase makes a cellular process visible.)
Data set [4] concerns HUVEC. The data set is described as follows: Cytotoxicity against HUVEC assessed as cell viability at 5 to 300 uM after 24 hrs by MTT assay. Format: cell-based. The following applies: human.
The target of data set [5] is T1, Forkhead box protein O3. Put plainly: Binding affinity to His-tagged FOXO3a (unknown origin) by SPR analysis. On the technique in general: Surface plasmon resonance follows binding to a sensor surface in real time, without labels.
Data set [6] deals with HUVEC. Put plainly: Induction of SIRT1 mRNA expression in HUVEC after 24 hrs by luciferase reporter gene assay relative to untreated control. In kind it is functional, cell-based. The following applies: Homo sapiens.
Data set [7] has as its system HUVEC. The data set is described as follows: Induction of SIRT1 mRNA expression in HUVEC by quantitative RT-PCR analysis. In kind it is functional, cell-based. The following applies: Homo sapiens.

Activity calls are given as the source filed them. The calls are words filed in the database; no cut-off is given here.

T1 sequence (O43524 whole entry): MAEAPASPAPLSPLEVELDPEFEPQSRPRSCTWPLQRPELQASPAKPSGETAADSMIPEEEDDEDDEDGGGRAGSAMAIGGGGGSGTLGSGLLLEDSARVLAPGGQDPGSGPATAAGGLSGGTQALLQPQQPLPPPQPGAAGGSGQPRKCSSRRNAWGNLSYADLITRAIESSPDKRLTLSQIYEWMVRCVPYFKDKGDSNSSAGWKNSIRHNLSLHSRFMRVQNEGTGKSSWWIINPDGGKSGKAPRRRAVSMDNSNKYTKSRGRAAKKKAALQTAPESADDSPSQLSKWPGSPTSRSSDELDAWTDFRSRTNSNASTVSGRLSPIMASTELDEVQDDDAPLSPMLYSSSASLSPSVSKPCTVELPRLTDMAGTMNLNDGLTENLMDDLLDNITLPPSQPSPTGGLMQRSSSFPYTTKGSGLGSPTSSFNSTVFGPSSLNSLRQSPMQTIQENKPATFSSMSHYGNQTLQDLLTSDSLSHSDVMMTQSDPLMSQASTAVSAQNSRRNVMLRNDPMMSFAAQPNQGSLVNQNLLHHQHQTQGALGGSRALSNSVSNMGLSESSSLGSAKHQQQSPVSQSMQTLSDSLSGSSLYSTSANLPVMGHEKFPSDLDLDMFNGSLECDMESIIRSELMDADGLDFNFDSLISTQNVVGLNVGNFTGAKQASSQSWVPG

Turning to `COc1cc([C@@H]2OC[C@@H]3[C@H]2CO[C@H]3c2cc(OC)c(O)c(OC)c2)cc(OC)c1O`, the result on Forkhead box protein O3 [1], in the data set with HUVEC [2], in the data set on HUVEC [3] and on Forkhead box protein O3 [5] was inactive. The Activity result with HUVEC [4] is given as “Non-toxic”.

A word on the Kd: it is the free concentration of one partner at which half of the binding sites on the other are occupied at equilibrium, for simple one-to-one binding. As to `COc1cc([C@H]2OC[C@H]3[C@@H]2CO[C@@H]3c2cc(OC)c(O)c(OC)c2)cc(OC)c1O` [SYRINGARESINOL], the Activity result in the data set with HUVEC [6] was “Dose-dependent effect”; with HUVEC [4], “Non-toxic”; in the data set with HUVEC [7], “Dose-dependent effect”. Moreover, at Forkhead box protein O3 [1], the result was Active. This compound showed a Kd at Forkhead box protein O3 [5] of 1.73 mM.
